Experimental data published in PMC3502511, “Inhibition of the Prokaryotic Pentameric Ligand-Gated Ion Channel ELIC by Divalent Cations” (PLoS Biology, 2012).

What was measured:
ELIC D113A/D158A = target: T1, ELIC D113A/D158A (Dickeya chrysanthemi, UniProt P0C7B7, D113A/D158A/INS163G); assay: cell-based; assay type: cell-based, Erwinia chrysanthemi; settings: 113A/158A, agonist cysteamine
T1 construct: expressed in transfected cells; host or cells: X. laevis oocytes
Method: (§1) Constructs containing the gene of either the WT or mutant channels preceded by the signal sequence of the chicken α7nAchR were cloned into the pTLN vector for expression in X. laevis oocytes. After linearization of the plasmid DNA by MluI, capped complementary RNA was transcribed with the mMessage mMachine kit (Ambion) and purified with the RNeasy kit (Qiagen). For expression, 1–50 ng of RNA was injected into defolliculated oocytes. Two-electrode voltage clamp measurements were performed 1 d after injection at 20°C (OC-725B, Warner Instrument Corp.). Currents were recorded in bath solutions containing 10 mM HEPES (pH 7), 130 mM NaCl, and the indicated concentrations of cysteamine and divalent cations. In case of solutions containing Zn^2+, cysteamine was replaced by propylamine. The membrane potential in all dose–response measurements was set to −40 mV. As ELIC is permeable to divalent cations, we tested if endogenous calcium-activated chloride channels affected our measurements. To chelate intracellular calcium ions, the oocytes were incubated for 15 to 30 min in bath solutions lacking divalent ions but containing 10 µM BAPTA-AM.

ELIC WT = target: T2, ELIC WT (Dickeya chrysanthemi, UniProt P0C7B7); assay: cell-based; assay type: cell-based, Erwinia chrysanthemi; settings: agonist cysteamine
T2 construct: expressed in transfected cells; host or cells: X. laevis oocytes (cRNA injection, pTLN vector)
Method: as §1

ELIC R91A = target: T3, ELIC R91A (Dickeya chrysanthemi, UniProt P0C7B7, INS163G/R91A); assay: Two-electrode voltage clamp, ELIC R91A in oocytes; assay type: cell-based, Erwinia chrysanthemi; settings: R91A, agonist cysteamine
T3 construct: expressed in transfected cells; host or cells: X. laevis oocytes
Method: as §1

ELIC D86A = target: T4, ELIC D86A (Dickeya chrysanthemi, UniProt P0C7B7, D86A/INS163G); assay: Two-electrode voltage clamp, ELIC D86A in oocytes; assay type: cell-based, Erwinia chrysanthemi; settings: agonist cysteamine
T4 construct: expressed in transfected cells; host or cells: X. laevis oocytes
Method: as §1

ELIC S84A [1] = target: T5, ELIC S84A (Dickeya chrysanthemi, UniProt P0C7B7, INS163G/S84A); assay: Two-electrode voltage clamp, ELIC S84A in oocytes; assay type: cell-based, Erwinia chrysanthemi; settings: S84A, agonist cysteamine
T5 construct: expressed in transfected cells; host or cells: X. laevis oocytes
Method: as §1

ELIC S84A [2] = assay: Two-electrode voltage clamp, ELIC S84A in oocytes; assay type: cell-based, Erwinia chrysanthemi; settings: S84A as printed in the N251A line (r30); Ca^2+ 10 mM; agonist cysteamine
Method: as §1

ELIC N251A = target: T6, ELIC N251A (Dickeya chrysanthemi, UniProt P0C7B7, N250A); assay: Two-electrode voltage clamp, ELIC N251A in oocytes; assay type: cell-based, Erwinia chrysanthemi; settings: agonist cysteamine
T6 construct: expressed in transfected cells; host or cells: X. laevis oocytes
Method: as §1

ELIC D113A = target: T7, ELIC D113A (Dickeya chrysanthemi, UniProt P0C7B7, D113A/INS163G); assay: Two-electrode voltage clamp, ELIC D113A in oocytes; assay type: cell-based, Erwinia chrysanthemi; settings: agonist cysteamine
T7 construct: expressed in transfected cells; host or cells: X. laevis oocytes
Method: as §1

ELIC D158A = target: T8, ELIC D158A (Dickeya chrysanthemi, UniProt P0C7B7, D158A/INS163G); assay: Two-electrode voltage clamp, ELIC D158A in oocytes; assay type: cell-based, Erwinia chrysanthemi; settings: agonist cysteamine
T8 construct: expressed in transfected cells; host or cells: X. laevis oocytes
Method: as §1

ELIC D158N = target: T9, ELIC D158N (Dickeya chrysanthemi, UniProt P0C7B7, D158N/INS163G); assay: Two-electrode voltage clamp, ELIC D158N in oocytes; assay type: cell-based, Erwinia chrysanthemi; settings: agonist cysteamine
T9 construct: expressed in transfected cells; host or cells: X. laevis oocytes
Method: as §1

ELIC E150Q = target: T10, ELIC E150Q (Dickeya chrysanthemi, UniProt P0C7B7, E150Q/INS163G); assay: Two-electrode voltage clamp, ELIC E150Q in oocytes; assay type: cell-based, Erwinia chrysanthemi; settings: agonist cysteamine
T10 construct: expressed in transfected cells; host or cells: X. laevis oocytes
Method: as §1

ELIC = target: T11, ELIC (Dickeya chrysanthemi, UniProt P0C7B7, INS163G); settings: single channel data; ref Marabelli et al., in preparation; cited from earlier work
T11 construct: expressed in transfected cells; host or cells: HEK 293 cells (ATCC CRL-1573), pcDNA3

NCCS [cysteamine]
EC50 (ELIC D113A/D158A; Ba^2+ 1 mM): 3070 µM | EC50 (ELIC D113A/D158A; Ba^2+ 5 mM): 3070 µM | EC50 (ELIC D113A/D158A; Ba^2+ 10 mM): 5420 µM | EC50 (ELIC D113A/D158A; Ca^2+ 0 mM): 2330 µM | EC50 (ELIC D113A/D158A; Ca^2+ 1 mM): 1590 µM | EC50 (ELIC D113A/D158A; Ca^2+ 5 mM): 1810 µM | EC50 (ELIC D113A/D158A; Ca^2+ 10 mM): 2960 µM | EC50 (ELIC D113A/D158A; Ca^2+ 25 mM): 3350 µM | EC50 (ELIC WT; WT/0.25Ca^2+, ACh 0 mM): 640 µM | EC50 (ELIC WT; WT/0.25Ca^2+, ACh 1 mM): 1160 µM | EC50 (ELIC WT; WT/0.25Ca^2+, ACh 5 mM): 3460 µM | EC50 (ELIC WT; WT/0.25Ca^2+, ACh 10 mM): 5080 µM | EC50 (ELIC WT; WT/0.5Ca^2+, ACh 0 mM): 1000 µM | EC50 (ELIC WT; WT/0.5Ca^2+, ACh 1 mM): 1830 µM | EC50 (ELIC WT; WT/0.5Ca^2+, ACh 5 mM): 4030 µM | EC50 (ELIC WT; WT/0.5Ca^2+, ACh 10 mM): 8450 µM | EC50 (ELIC WT; WT/1Ca^2+, ACh 0 mM): 1730 µM | EC50 (ELIC WT; WT/1Ca^2+, ACh 1 mM): 2680 µM | EC50 (ELIC WT; WT/1Ca^2+, ACh 5 mM): 5120 µM | EC50 (ELIC WT; WT/1Ca^2+, ACh 10 mM): 8240 µM | EC50 (ELIC WT; WT/BAPTA, Ca^2+ 0 mM): 360 µM | EC50 (ELIC WT; WT/BAPTA, Ca^2+ 0.25 mM): 840 µM | EC50 (ELIC WT; WT/BAPTA, Ca^2+ 0.5 mM): 1070 µM | EC50 (ELIC WT; WT/BAPTA, Ca^2+ 1.0 mM): 2230 µM | EC50 (ELIC WT; WT, ACh 1 mM): 570 µM | EC50 (ELIC WT; WT, ACh 5.0 mM): 1490 µM | EC50 (ELIC WT; WT, ACh 10.0 mM): 2250 µM | EC50 (ELIC WT; WT, Ba^2+ 1 mM): 760 µM | EC50 (ELIC WT; WT, Ba^2+ 5 mM): 2680 µM | EC50 (ELIC WT; WT, Ba^2+ 10 mM): 5270 µM | EC50 (ELIC WT; WT, Ca^2+ 0 mM): 360 µM | EC50 (ELIC WT; WT, Ca^2+ 0.1 mM): 350 µM | EC50 (ELIC WT; WT, Ca^2+ 0.25 mM): 640 µM | EC50 (ELIC WT; WT, Ca^2+ 0.5 mM): 1000 µM | EC50 (ELIC WT; WT, Ca^2+ 1.0 mM): 1730 µM | EC50 (ELIC WT; WT, Ca^2+ 2.5 mM): 2460 µM | EC50 (ELIC WT; WT, Ca^2+ 5.0 mM): 4370 µM | EC50 (ELIC WT; WT, Mg^2+ 1 mM): 1040 µM | EC50 (ELIC WT; WT, Mg^2+ 5 mM): 3050 µM | EC50 (ELIC WT; WT, Mg^2+ 10 mM): 5310 µM | EC50 (ELIC WT; WT, Sr^2+ 1 mM): 750 µM | EC50 (ELIC WT; WT, Sr^2+ 5 mM): 2110 µM | EC50 (ELIC WT; WT, Sr^2+ 10 mM): 3410 µM | EC50 (ELIC R91A; ACh 1 mM): 400 µM | EC50 (ELIC R91A; ACh 5 mM): 880 µM | EC50 (ELIC R91A; ACh 10 mM): 1780 µM | EC50 (ELIC R91A; Ca^2+ 0 mM): 90 µM | EC50 (ELIC R91A; Ca^2+ 0.5 mM): 240 µM | EC50 (ELIC R91A; Ca^2+ 1 mM): 410 µM | EC50 (ELIC R91A; Ca^2+ 5 mM): 920 µM | EC50 (ELIC R91A; TMA 10 mM): 230 µM | EC50 (ELIC R91A; TMA 25 mM): 330 µM | EC50 (ELIC R91A; TMA 50 mM): 590 µM | EC50 (ELIC D86A; Ca^2+ 0 mM): 570 µM | EC50 (ELIC D86A; Ca^2+ 1 mM): 2300 µM | EC50 (ELIC D86A; Ca^2+ 5 mM): 5310 µM | EC50 (ELIC D86A; Ca^2+ 10 mM): 11200 µM | EC50 (ELIC S84A [1]; Ca^2+ 0 mM): 360 µM | EC50 (ELIC S84A [1]; Ca^2+ 1 mM): 1550 µM | EC50 (ELIC S84A [1]; Ca^2+ 5 mM): 2740 µM | EC50 (ELIC S84A [1]; Ca^2+ 10 mM): 5430 µM | EC50 (ELIC S84A [2]): 5310 µM | EC50 (ELIC N251A; Ca^2+ 0 mM): 290 µM | EC50 (ELIC N251A; Ca^2+ 1 mM): 840 µM | EC50 (ELIC N251A; Ca^2+ 5 mM): 1900 µM | EC50 (ELIC D113A; Ca^2+ 0 mM): 950 µM | EC50 (ELIC D113A; Ca^2+ 1 mM): 880 µM | EC50 (ELIC D113A; Ca^2+ 2.5 mM): 1460 µM | EC50 (ELIC D113A; Ca^2+ 5 mM): 1860 µM | EC50 (ELIC D113A; Ca^2+ 10 mM): 2900 µM | EC50 (ELIC D113A; Ca^2+ 25 mM): 6370 µM | EC50 (ELIC D158A; Ca^2+ 0 mM): 1780 µM | EC50 (ELIC D158A; Ca^2+ 1 mM): 1790 µM | EC50 (ELIC D158A; Ca^2+ 5 mM): 3330 µM | EC50 (ELIC D158A; Ca^2+ 10 mM): 5430 µM | EC50 (ELIC D158A; Ca^2+ 20 mM): 9380 µM | EC50 (ELIC D158N; Ca^2+ 0 mM): 3880 µM | EC50 (ELIC D158N; Ca^2+ 1 mM): 5610 µM | EC50 (ELIC D158N; Ca^2+ 5 mM): 8500 µM | EC50 (ELIC D158N; Ca^2+ 10 mM): 11200 µM | EC50 (ELIC E150Q; Ca^2+ 0 mM): 2920 µM | EC50 (ELIC E150Q; Ca^2+ 1 mM): 5290 µM | EC50 (ELIC E150Q; Ca^2+ 5 mM): 14600 µM | EC50 (ELIC E150Q; Ca^2+ 10 mM): 21900 µM | maximum Popen (ELIC): 98%
